10 molecules from US10457641B2, “Certain chemical entities, compositions, and methods” (NEUPHARMA, INC., priority 2012, dated 2019) can be followed below.

Experiment [1] deals with T1, BRAF V600E (Homo sapiens, UniProt P15056, V600E).
T1 construct: purchased Invitrogen
The experiment in a line: Z'-LYTE kinase inhibition assay, BRAF V600E. In kind it is biochemical. The note with it: 1 μM compound; Z'-LYTE method. As to the method:
(§1) Inhibitory activities of compounds against BRAF or BRAF V600E were measured by Invitrogen using Z′-LYTE® Method as briefly described in the following.
(§2) 4× Test compounds are dissolved in 1% DMSO. […] ATP solutions are diluted to a 4×ATP working concentration in Kinase Buffer (50 mM HEPES pH 7.5, 0.01% BRIJ-35, 10 mM MgCl2, 1 mM EGTA).
(§3) Reaction starts by 30-second shaking of mixture consisting of 2.5 μL 4× test compound, 2.5 μL 2× kinase reaction mixture and 2.5 μL 4×ATP Solution on Bar-coded Corning, low volume NBS, black 384-well plate (Corning Cat. #3676). Then the mixture is incubated for 60-minute at room temperature for the kinase reaction, followed by addition of 5 μL of a 1:1024 dilution of development reagent A and 30-second plate shake. The mixture is then incubated for another 60-minute at room temperature for development reaction. Finally fluorescence is read by plate reader.

Experiment [2] deals with Colo-205 (human colon carcinoma cell). The experiment in a line: Inhibition of cancer cell growth, MTS assay, Colo-205. In kind it is cell-based. The note with it: 72 h treatment. How it is done:
(§4) A375 (human melanoma cell, BRAF V600E Mutant), A549 (adenocarcinomic human alveolar basal epithelial cell) and Colo-205 (human colon carcinoma cell) were purchased from ATCC (American Type Culture Collection, Manassas, Va.). All cell lines were maintained in RPMI 1640 (Hyclone) or DMEM (Hyclone) supplemented with 10% fetal bovine serum (FBS, Hyclone), glutamine (2 mM, Hyclone), and antibiotics (penicillin 100 U/mL and streptomycin 50 μg/mL) at 37° C. in a humidified atmosphere of 5% CO2 in air.
(§5) To test IC50 of inhibition of individual compounds against each cell line, A375, A549 and Colo-205 cells were first plated in 96-well plates at densities of 2000-4000 cells/well. Cells were then incubated to allow cells to adhere and grow for 24 h. Cells were then treated with a series of concentrations of compounds for 72 h. The highest concentration of compounds was 20 μM. Cells were then removed from the incubator and medium was removed by inverting and tapping the plates. 100 μL of MTT (0.5 mg/ml) or 10 μL or MTS was added to each well followed by an incubated at 37° C. for 4 h. Then MTT was removed and 200 μL of DMSO was added to each well, followed by reading the ODs at 570 nm after a 5 second shaking cycle in a 96-well spectrophotometer. For MTS method, MTS was not removed, and the incubated solutions were directly put in a 96-well spectrophotometer for the reading of the ODs at 492 nm.
(§6) IC50 was calculated by plotting the concentration of compound vs the percentage of inhibition in treated wells using GraphPad Prism 5. […] The scale utilized in Table 3 is as follows: +++ less than 1 μM; ++ between 1 μM and 5 μM; and + greater than 5 μM.
(In general: Tetrazolium assays rely on reduction of a dye to a coloured formazan, in cell work by metabolically active cells.)

For experiment [3], the system named is A375 (human melanoma cell, BRAF V600E Mutant). The experiment in a line: Inhibition of cancer cell growth, MTT assay, A375. The note with it: A-375, 72 h treatment. In kind it is cell-based. As to the method: as §4, §5, §6
The subject of experiment [4] is A549 (adenocarcinomic human alveolar basal epithelial cell). Kind of experiment: Inhibition of cancer cell growth, MTT assay, A549. In kind it is cell-based. The note with it: 72 h treatment. How it is done: as §4, §5, §6
Experiment [5] concerns the target T2, BRAF (Homo sapiens, UniProt P15056).
T2 construct: purchased Invitrogen
The experiment in a line: Z'-LYTE kinase inhibition assay, BRAF. In kind it is biochemical. The note with it: 1 μM compound; Z'-LYTE method. How it is done: as §1, §2, §3

T1 sequence (P15056 whole entry V600E): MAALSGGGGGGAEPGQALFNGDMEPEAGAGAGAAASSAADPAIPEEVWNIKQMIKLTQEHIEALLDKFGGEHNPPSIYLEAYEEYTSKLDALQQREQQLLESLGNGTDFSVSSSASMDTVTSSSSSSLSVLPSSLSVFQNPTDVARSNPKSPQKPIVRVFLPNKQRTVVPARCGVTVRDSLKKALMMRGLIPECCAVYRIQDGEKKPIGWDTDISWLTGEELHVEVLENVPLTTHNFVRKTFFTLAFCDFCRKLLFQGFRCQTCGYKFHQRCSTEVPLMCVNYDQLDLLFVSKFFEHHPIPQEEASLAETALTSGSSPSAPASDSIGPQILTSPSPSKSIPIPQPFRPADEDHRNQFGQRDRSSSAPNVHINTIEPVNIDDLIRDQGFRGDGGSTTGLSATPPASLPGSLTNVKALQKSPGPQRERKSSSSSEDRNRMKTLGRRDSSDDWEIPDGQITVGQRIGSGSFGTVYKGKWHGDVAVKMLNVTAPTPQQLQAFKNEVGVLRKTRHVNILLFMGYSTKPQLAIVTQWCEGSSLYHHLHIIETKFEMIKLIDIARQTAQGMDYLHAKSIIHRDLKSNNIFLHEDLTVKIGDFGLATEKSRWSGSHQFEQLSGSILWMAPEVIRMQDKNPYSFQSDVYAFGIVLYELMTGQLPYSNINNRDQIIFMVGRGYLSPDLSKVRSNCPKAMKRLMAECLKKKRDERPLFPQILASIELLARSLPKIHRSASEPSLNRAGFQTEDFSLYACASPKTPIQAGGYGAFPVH
T2 sequence (P15056 whole entry): as the sequence (P15056 whole entry V600E) above, with E600V counted along it

Usually inhibition stands for the share of the control response that was lost under treatment. As a reminder, the IC50 is the point on the concentration scale where inhibition reaches its midpoint. Read a high IC50 as weaker potency. As for `O=C(Nc1ccc(F)c(F)c1)Nc1cc(F)c(F)c(C(=O)c2ccc3ncccc3c2)c1F` [Compound C004, 1-(3,4-difluorophenyl)-3-(2,4,5-trifluoro-3-(quinoline-6-carbonyl)phenyl)urea], in experiment [1], the inhibition at 1 µM is less than 70%. The IC50 in experiment [2] is more than 5 µM; in experiment [3], more than 5 µM; in experiment [4], 1 to 5 µM.

The molecule `O=C(Nc1cccc(F)c1)Nc1cc(F)c(F)c(C(=O)c2ccc3ncccc3c2)c1F` [Compound C002, 1-(3-fluorophenyl)-3-(2,4,5-trifluoro-3-(quinoline-6-carbonyl)phenyl)urea] had an inhibition at 1 µM in experiment [1] of less than 70%. Besides, the figures for the IC50 in experiment [2], in experiment [3] and in experiment [4] were more than 5 µM, more than 5 µM and 1 to 5 µM, respectively.

On to `CCCS(=O)(=O)Nc1cc(F)c(F)c(C(=O)c2ccc3ncncc3c2)c1F` [Compound C010, N-(2,4,5-trifluoro-3-(quinazoline-6-carbonyl)phenyl)propane-1-sulfonamide], for which the inhibition at 1 µM in experiment [1] and in experiment [5] was more than 89% each time. The values for the IC50 in experiment [2], in experiment [3] and in experiment [4] were less than 1 µM, less than 1 µM and more than 5 µM, respectively.

The molecule `O=C(Nc1cc(F)c(F)c(C(=O)c2ccc3ncccc3c2)c1F)c1ccc(F)c(F)c1` [Compound C009, 3,4-difluoro-N-(2,4,5-trifluoro-3-(quinoline-6-carbonyl)phenyl)benzamide] had an inhibition at 1 µM in experiment [1] of less than 70%. The IC50 in experiment [2], in experiment [3] and in experiment [4] was more than 5 µM each time.

For the molecule `O=C(Nc1cc(F)cc(F)c1)Nc1cc(F)c(F)c(C(=O)c2ccc3ncccc3c2)c1F` [Compound C005, 1-(3,5-difluorophenyl)-3-(2,4,5-trifluoro-3-(quinoline-6-carbonyl)phenyl)urea], in experiment [1], the inhibition at 1 µM is less than 70%. Further, the IC50 in experiment [2] was more than 5 µM; in experiment [3], 1 to 5 µM; in experiment [4] it was 1 to 5 µM.

As for `CCCS(=O)(=O)Nc1cc(F)c(F)c(C(=O)c2ccc3ncccc3c2)c1F` [Compound C001, N-(2,4,5-trifluoro-3-(quinoline-6-carbonyl)phenyl)propane-1-sulfonamide], the inhibition at 1 µM is more than 89% in experiment [1] and 70 to 89% in experiment [5]. Also, the IC50 in experiment [2] is 1 to 5 µM; in experiment [3] it was less than 1 µM; in experiment [4], more than 5 µM.

As to `O=C(Nc1ccc(F)cc1)Nc1cc(F)c(F)c(C(=O)c2ccc3ncccc3c2)c1F` [Compound C003, 1-(4-fluorophenyl)-3-(2,4,5-trifluoro-3-(quinoline-6-carbonyl)phenyl)urea], the inhibition at 1 µM in experiment [1] and in experiment [5] was less than 70% each time. The IC50 in experiment [2], in experiment [3] and in experiment [4] was more than 5 µM in each case.

`O=C(Nc1cc(F)c(F)c(C(=O)c2ccc3ncccc3c2)c1F)c1cc(F)cc(F)c1` [Compound C008, 3,5-difluoro-N-(2,4,5-trifluoro-3-(quinoline-6-carbonyl)phenyl)benzamide]: the inhibition at 1 µM in experiment [1] and in experiment [5] was less than 70% each time. The IC50 in experiment [2], in experiment [3] and in experiment [4] was more than 5 µM each time.

Regarding `O=C(Nc1cc(F)c(F)c(C(=O)c2ccc3ncccc3c2)c1F)c1ccc(F)cc1` [Compound C007, 4-fluoro-N-(2,4,5-trifluoro-3-(quinoline-6-carbonyl)phenyl)benzamide], the inhibition at 1 µM in experiment [1] is less than 70%. Further, the IC50 in experiment [2], in experiment [3] and in experiment [4] was more than 5 µM in each case.

With `O=C(Nc1cc(F)c(F)c(C(=O)c2ccc3ncccc3c2)c1F)c1cccc(F)c1` [Compound C006, 3-fluoro-N-(2,4,5-trifluoro-3-(quinoline-6-carbonyl)phenyl)benzamide], the results for the inhibition at 1 µM in experiment [1] and in experiment [5] were 70 to 89% and less than 70%, respectively. The IC50 in experiment [2], in experiment [3] and in experiment [4] was more than 5 µM throughout.
